The nature of data set [1]: Hydrolytic stability at selected pH values (TLC). Format: physicochemical. How it is done:
Each 20 mg of lyophilized L-DOPA glycerol ester hydrochloride as well as L-DOPA ethyl ester hydrochloride were dissolved in 250 μl of buffer solution which was de-gassed for 5 min under argon.
The ester solutions were stored at 32° C.

The target of data set [2] is T1, carboxylesterase 1 (isoform c, human, recombinant) (Homo sapiens, UniProt P23141).
T1 construct: purchased Sigma-Aldrich, Munich, Germany
T1 sequence (P23141 18-566 isoform P23141-3 limits assumed): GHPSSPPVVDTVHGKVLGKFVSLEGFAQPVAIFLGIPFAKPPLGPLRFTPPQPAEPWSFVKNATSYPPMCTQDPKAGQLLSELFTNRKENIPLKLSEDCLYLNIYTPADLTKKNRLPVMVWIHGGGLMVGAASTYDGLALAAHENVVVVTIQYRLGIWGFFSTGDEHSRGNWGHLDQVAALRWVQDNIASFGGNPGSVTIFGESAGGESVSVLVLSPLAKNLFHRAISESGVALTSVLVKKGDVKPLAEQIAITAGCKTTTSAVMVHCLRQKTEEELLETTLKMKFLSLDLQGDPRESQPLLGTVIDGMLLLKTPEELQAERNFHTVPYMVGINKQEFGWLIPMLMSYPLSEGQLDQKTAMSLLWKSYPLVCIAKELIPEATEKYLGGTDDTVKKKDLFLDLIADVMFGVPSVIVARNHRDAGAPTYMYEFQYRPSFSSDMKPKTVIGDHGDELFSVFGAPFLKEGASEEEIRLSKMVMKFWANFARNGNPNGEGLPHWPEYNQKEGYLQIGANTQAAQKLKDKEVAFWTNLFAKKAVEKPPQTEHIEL
Description: Enzymatic ester cleavage using isolated carboxylesterase. The format is in vitro ADME. As for the experimental part:
Enzymatic Ester Cleavage Using Isolated Carboxylesterase
Afterwards 5 μl carboxylestaerase 1 (isoform c, human, recombinant (Sigma-Aldrich, Munich, Germany)) with activity 1000 units/mg protein (concentration: 5 mg/ml) was added. The mixture was incubated for 60 and 180 min at 37° C.

The next data set can be described thus: Solubility in water. Format: physicochemical. Particulars: for solubility in water: hydrochloride salt; for Aqueous solubility: water. As for the experimental part: 40 mg of lyophilized L-DOPA glycerol ester hydrochloride was dissolved in 20 μl of water resulting in a viscous liquid. The aqueous solubility of L-DOPA glycerol ester hydrochloride is ≥2 g/ml.

The conditions of data set [3]: cited from earlier work.

Converted amounts (≈) assume the structure as drawn. Where only a bound is given, the exact number is not on record here.

What is called Aqueous solubility is how much of the substance goes into solution per volume. High values mean much dissolved substance, low ones little dissolved substance. One may read the solubility as the concentration that dissolves in the medium under given conditions.

For the compound `CCOC(=O)[C@@H](N)Cc1ccc(O)c(O)c1.Cl` [Ethyl-Dopa•HCl, L-DOPA ethyl ester hydrochloride], the “Stability (days at pH 7.4, Soerensen buffer)” value in data set [1] came to 2 days. In data set [2], the “Time to complete hydrolysis (min) (with carboxylesterase)” value stood at 60 min. Besides, in the data set “Solubility in water”, the solubility in water result was “up to 400 mg/ml” and the “Aqueous solubility” value was found to be 400 mg/mL.
As to `Cl.N[C@@H](Cc1ccc(O)c(O)c1)C(=O)OCC(O)CO` (stereo partly drawn) [Gly-Dopa•HCl, L-DOPA glycerol ester hydrochloride], the hydrolytic stability entry in data set [1] (all pH values (1, 4.5, 7.4, 8.5), 32° C., over 14 days) is listed as “stable”. For the same compound, the “Stability (days at pH 7.4, Soerensen buffer)” value in data set [1] was found to be 14 days. In addition, in data set [2], the “Time to complete hydrolysis (min) (with carboxylesterase)” value was over 60 min. For the same compound, in data set [2] (carboxylesterase 1, 37° C., after 180 min), the ester remaining result is given as “only traces”. In addition, the “Aqueous solubility” value in “Solubility in water” (hydrochloride) was 2000 mg/mL; in “Solubility in water” (listed as L-DOPA glycerol ester hydrochloride, hydrochloride), at least 2000 mg/mL.
Turning to `CCOC(=O)[C@@H](N)Cc1ccc(O)c(O)c1` [L-DOPA ethyl ester], the “time within which the ester is cleaved” value in data set [1] (pH 7.4, 32° C.) is at most 2 days; in data set [1] (pH 8.5, 32° C.), at most 2 days; in data set [1] (pH=4.5, 32° C.), at most 14 days. Further, in data set [1] (pH=1, 32° C., over measured time period), the hydrolytic stability entry is listed as “stable”. Besides, the solubility in data set [3] (at pH 8.2, free base, US 6,696,600 B2) is 52 mg/mL (≈ 231 mM). In addition, the ester cleavage entry in data set [2] (carboxylesterase 1, 37° C., after 60 min) is on record as “complete”. The solubility in water in “Solubility in water” came out at 400 mg/mL.
For `N[C@@H](Cc1ccc(O)c(O)c1)C(=O)O` [L-DOPA, L-3,4-Dihydroxyphenylalanin], the water solubility in data set [3] (reported, Fernandez & Odin 2011) was 20 mg/mL (≈ 101 mM).

These data come from patent US11046640B2, “Water-soluble L-DOPA esters” (BERLIREM GMBH, priority 2015, dated 2021).
